Tests used:
[1] = system: human cord blood CD34+ cells (CD34+CD49f+ cells); test: human cord blood CD34+ cell ex vivo culture and screen; type: cell-based; conditions: dose response, Fig. 4B
Protocol: Based on our study of murine HSCs, we further tested whether these p18SMIs could expand human cord blood CD34^+ cells in ex vivo culture. […] We cultured human cord blood CD34^+ cells for 7 days in HSCs expansion media in the presence of 200 nM of p18SMIs, and then analyzed the percentage and absolute number of CD34^+CD49f^+ cells by flow cytometry. We screened 40 p18SMIs, of which14 compounds could increase the number of CD34^+CD49f^+ cells compared with the control group (Fig. S6). […] Then we conducted a concentration gradient assay on top three p18SMIs with ED50 less than 10 nM (compounds 22, 40 and 41). […] Only in specific doses could they show their expansion effect on human HSCs (Fig. 4B).
Human cord blood samples were collected from consenting donors according to ethically approved procedures at Tianjin Central Hospital of Gynecology Obstetrics (Tianjin, China), under a protocol approved by the Ethical Committee on Medical Research at the Institute of Hematology. Human CD34^+ cord blood cells were isolated using human CD34 MicroBead Kit (MiltenyiBiotec) according to the manufacturer’s protocol after settling red cells with HES and red cells lysis with ACK Lysis Buffer.
Human CD34^+ cells were cultured in expansion medium consisting of StemSpan SFEM (StemCell Technologies) supplemented with 100 ng/mL human stem cell factor (SCF, PeproTech), 50 ng/mL human thrombopoietin (TPO, PeproTech), 100 ng/mL human FMS-like trysine kinase 3 ligand (Flt3L, PeproTech). Human CD34^+ cells were resuspended in expansion medium (5 × 10^4 cells/mL) before being aliquoted in 96-well plates (Costar, Corning Incorporated). Compounds, all with a final concentration of 200 nM, were dissolved in DMSO and added immediately in cell suspension after plating. The final concentration of DMSO in the control group was the same as in the compounds-treated group. Cells were cultured at 37 °C in 5% CO2. Based on the results of primary screening upon human cells and the results of ED50, we chose three compounds for further experiments. The expansion medium was changed to StemSpan SFEM (StemCell Technologies) supplemented with 100 ng/mL human stem cell factor (SCF, PeproTech), 100 ng/mL human thrombopoietin (TPO, PeproTech), 100 ng/mL human FMS-like trysine kinase 3 ligand (Flt3L, PeproTech) and 100 ng/mL human interleukin-6 (IL-6, PeproTech) for better expansion effect. The incubation condition was consistent with before.
Phenotypes analysis of cultured cells was performed on a BD FACS Array (Becton Dickinson Biosciences) using a combination of the following antibodies: APC anti-CD34 (BD Biosciences), PE anti-CD49f (BD Biosciences). Stained cells were washed once with PBS and then measured and analyzed on an FACS analyzer (FACSArray, BD Biosciences).

[2] = system: HSCs (bone marrow MNCs); test: cobblestone area forming cells (CAFC) assay with limiting dilution assay (LDA); type: cell-based, mouse; conditions: day 35
Protocol: We also investigated whether the increased number of phenotypic SLAM^+LT-HSCs in short-term culture assays was correlated with an increase in functional LT-HSCs. Cobblestone area forming cells (CAFC) assay combined with limiting-dilution assays (LDA) were performed to measure the frequency of HSCs[19][22][30]. Compared with the control group (HSC frequency is 1 in 112,559 of the original plated cells), the frequency of HSC at day 35 (indicating the activity of hematopoietic reconstitution capacity) was 2.7-fold and 3.0-fold higher in the cultures treated with XIE18–6 (HSC frequency is 1 in 42,490 of the original plated cells) and compound 40 (HSC frequency is 1 in 37,524 of the original plated cells) (p < 0.001, Fig. 3C), respectively.
Freshly isolated bone marrow MNCs from mice, 6–8 weeks old, were plated in a 24-well plate with 1 mL Dexter’s medium at a density of 2 × 10^6 cells per mL in the absence or presence of different doses of the tested compounds. The culture was maintained at 33 °C with 5% CO2. The number of cobblestone areas (CAs) was counted weekly. The medium was also replaced with half fresh medium on a weekly basis. For the limiting dilution analysis (LDA) of the test cells, different limiting doses were plated on the irradiated stromal cells in 96-well plates containing 200 μL of M5300 medium (StemCell Technologies) supplemented with 10^−6 M hydrocortisone. Each group was done with 20 replicates well. Small-molecule compounds were added to the co-culture system at different doses. Half of the medium in each well was replaced with fresh medium containing the test compounds weekly. The existence of CA in each well was evaluated under an inverted microscope at weekly intervals for 5 weeks. Based on the Poisson distribution of the negative wells, the frequency of long-term initiating cells was calculated with L-Calc software (StemCell Technologies).

[3] = system: HSCs (CD34−LKS cells); test: single hematopoietic stem cell in vitro culture (nmEM colony) assay; type: cell-based, mouse; conditions: single CD34−LKS cell culture, 14 days, ratio of nmEM wells to DMSO control
Protocol: We biologically assessed the 22 putative p18SMI compounds for their ability to maintain HSCs stem cell characteristics, to be specific self-renewal and multi-lineage differentiation, using single cell cultures. […] Thus, we employed single HSC culture to assess p18SMI compounds’ effect upon HSCs. CD34^−LKS cells from C57BL/6 mice were individually deposited into a 96-well plate (one cell/well). The single cell was cultured for 14 days in 100 μL of serum-free medium (Gibco) containing 100 ng/mL of mouse stem cell factor (SCF), 10 ng/mL of mouse interleukin-3 (IL-3), 25 ng/mL of human thrombopoietin (TPO), 2 U/mL of human erythropoietin (EPO) and differing concentrations of the p18SMI compound. Cells were cultured 14 days for in vitro colony formation and colonies were then cytospined and analyzed by flow cytometry to test the subpopulation of cultured cells. Neutrophils (n), macrophages (m), erythroblasts (E) or megakaryocytes (M) were identified by the cell marker of Gr-1, Mac-1, Ter-119 and CD41 using flow cytometry. The wells from each group that generated all lineages (nmEM) were counted and the ratio to the control group (DMSO) was calculated.
Single CD34^-LKS cells from C57BL/6 mice were individually deposited into each well of a 96-well plate along with 100 μL of serum free medium (Gibco) containing 100 ng/mL of mouse SCF, 10 ng/mL of mouse IL-3, 25 ng/mL of human TPO, 2 U/mL of human EPO and p18SMI compounds (different dilutions). Cells were cultured in a 37 °C, 5% CO2 incubator for 14 days for ex vivo colony formation. Colonies were then cytospined and analyzed using flow cytometry. Neutrophils (n), macrophages (m), erythroblasts (E) or megakaryocytes (M) were identified based on their cell surface maker, Gr-1, Mac-1, Ter119 and CD41. Cells were measured on an FACS analyzer (FACSArray, BD Biosciences). […] The wells from each group that generated all lineages (nmEM) were counted. The ratio of p18SMI compound treatment group to the control group (DMSO-treated) was calculated and fitted to a curve to calculate the ED50 value using GraphPad Prism v6.0.

[4] = system: LT-repopulating HSCs (CD34-LKS cells); test: competitive bone marrow transplantation (cBMT) assay; type: in vivo, mouse
Protocol: Figure 3 Treatment of c-Kit-enriched murine BM cells with p18SMI compounds enhances HSC expansion. (A) The average number of total cells, HSPCs (Lin^−Sca1^+) and long term (LT)-HSCs (Lin^-Sca1^+CD48^−CD150^+) were analyzed by flow cytometry. (B) Single CD34^−LKS cell were deposited into each well of a 96-well plate, along with differentiation medium plus different concentrations of p18SMI compounds to show the dose-response effect of p18SMI compounds. (C) CAFC-LDA assay of cells treated with XIE18-6, compound 40 and DMSO to reveal the frequency of primitive HSCs. Above data (A–C) is mean ± SEM for all experiments of two or more and were performed in duplicate or triplicate. (D) Experimental design for transplantation (n = 10). CD34^-LKS cells were sorted into 96-well plates at 50 cells/well and cultured for 3 days with cytokine plus 20 μM of compounds or DMSO. Cells from each well were mixed with 2 × 10^6 freshly isolated bone marrow MNCs and co-transplanted by tail-vein injection into lethally irradiated CD45.2 recipient mice. 16 weeks after transplantation, bone marrow MNCs were stained to determine the engraftment level of donor cells. Bone marrow MNCs were also stained for lineage analysis. Multi-lineage differentiation was examined by flow cytometry. GM, T and B indicate lineages for myeloid, T and B cells, respectively. (E,F) The engraftment levels at 16 weeks after primary transplantation, and multi-lineage differentiation profile. Data is mean ± SEM for all experiments (***p < 0.001, **p < 0.01). TEXT PRINTED IN THE PICTURE: (E) #40: Engrafment%: *** 5.93X | (E) XIE18-6: Engrafment%: ** 3.01X DOUBTS OF THE COPYIST ABOUT THIS PICTURE: Panel E: 5.93X and 3.01X are printed on brackets running from #40 and from XIE18-6 to DMSO. No measure is printed beside them, so the axis label 'Engrafment%' was used as the measure.
The increased frequency and total number of functional LT-HSCs after treatment with p18SMI compounds was further confirmed by competitive bone marrow transplantation (cBMT) assay (Fig. 3D). CD34^-LKS cells were first sorted and cultured w/o p18SMI compound for 3 days. Then the cultured cells were gathered and co-transplanted into lethally irradiated mice with competitor cells. […] Moreover, the engraftment of the group treated with compound 40 was double of that of the group treated with XIE18–6.

[5] = system: LT-HSCs; design: method as in PMID 25692908; conditions: CDK inhibitor alone; cited from earlier work

Structure (SMILES)	expansion of human HSCs in concentration gradient assay [1]	ED50 (activity to promote the expansion of HSCs) [3]	maintenance of HSCs population [5]	further results
COC(=O)[C@H](NS(=O)(=O)c1ccc(NC(C)=O)cc1)c1ccccc1 [Compound 22]	concentration related			
CC(=O)Nc1ccc(S(=O)(=O)Oc2ccc3c(C)cc(=O)oc3c2)cc1 [XIE18-6]		105.5 nM		HSC frequency (1 in x of the original plated cells) [2]: 42,490; frequency of HSC, fold higher than control group [2]: 2.7 fold; multi-lineage differentiation profile (GM, T, B) compared with the control group ([4]; 16 weeks after transplantation): did not cause predominant growth of any specific lineages; increase in engraftment compared with the DMSO control group ([4]; CD34-LKS cells cultured 3 days with 20 μM compound, co-transplanted with competitor cells into lethally irradiated mice, bone marrow 16 weeks after transplantation): 3.01 fold; increase in engraftment compared with the uncultured group ([4]; cells cultured 3 days with 20 μM compound, 16 weeks after transplantation): 2.20 fold
CC(=O)Nc1ccc(C(=O)Oc2ccc3c(C(C)C)cc(=O)oc3c2)cc1 [Compound 41, 4-Isopropyl-2-oxo-2H-chromen-7-yl 4-acetamidobenzoate]	concentration related			
O=C(O)c1ccc(S(=O)(=O)NC2CCCCC2)cc1 [Compound 39, 4-(N-cyclohexylsulfamoyl)benzoic acid]		120 nM		
CC(C)(C)c1cnc(CSc2cnc(NC(=O)C3CCNCC3)s2)o1 [SNS032]			could not maintain HSCs population	
CC(=O)c1c(C)c2cnc(Nc3ccc(N4CCNCC4)cn3)nc2n(C2CCCC2)c1=O [PD0332991]			could not maintain HSCs population	
